Patent US6946458B2, “N-thiolated beta-lactams: novel antibacterial agents for methicillin-resistant Staphylococcus aureus” (University of South Florida, priority 1999, dated 2005)

Assays:
Type in all cases: cell-based, Staphylococcus aureus
[1] = tested on: MRSA USF653; test: Kirby-Bauer agar disk diffusion; set-up: Kirby-Bauer Disc Diffusion Test Results: unit not given here; settings: for Zones of Inhibition: Table 4; for Kirby-Bauer Disc Diffusion Test Results: Table 5, beta-lactamase producing strain
Procedure: (§1) In this study, a selection of N-methylthio-substituted β-lactams are examined for antimicrobial activity by the Kirby-Bauer disk diffusion method on agar plates. A variety of common Gram-positive and Gram-negative bacteria are tested, including clinical isolates of methicillin-resistant Staphylococcus aureus (MRSA).
(§2) Compound susceptibility measurements are obtained from agar disk diffusion experiments using 6-mm air-dried disks impregnated with 20 μg of the test compound. The values correspond to the average diameters in mm (triplicate experiments) for the zone of growth inhibition observed after 24 h. Staphylococcus aureus (ATCC 25923) and β-lactamase-producing strains of methicillin-resistant Staphylococcus aureus (labeled as MRSA USF652-659) are obtained from Lakeland Regional Medical Center, Lakeland, Fla. Staphylococcus epidermidis, Staphylococcus simulans, Staphylococcus simulans, and Microcossus luteus are clinical isolates from University of South Florida Medical Clinic. Nieserria gonnorhoeae (β-lactamase positive) is obtained from the Tampa Branch State Laboratory. PenG is penicillin G (potassium salt). Table 1 provides the zones of growth inhibition that are observed after 24 hours using the lactams of FIGS. 1A-1I (designated A-I, respectively).
(§3) Of particular interest is the ability of these compounds to retain their effectiveness against penicillin-resistant strains of Staphylococcus aureus, a dangerous hospital-borne pathogen which is becoming difficult to treat with conventional antibiotic therapy. The lactams were screened for antibacterial activity by disk diffusion on agar plates, and the resulting zones of bacterial growth inhibition measured (see Table 3; each lactam is designated by Figure number).
(§4) Table 3: Growth inhibition zones obtained from agar disk diffusion experiments using 6-mm air-dried disks impregnated with 20 μg of the test compound. The values correspond to the average diameters in mm for the zone of growth inhibition observed after 24 hours. Staphylococcus aureus and β-lactamase-producing strains of methicillin-resistant Staphylococcus aureus (labeled MRSA USF652-659) are obtained from a clinical testing laboratory at Lakeland Regional Medical Center, Lakeland, Fla.
(§5) Those compounds were tested for bioactivity using the Kirby-Bauer test on agar plates.
(§6) Biological activity is enhanced against β-lactamase producing strains of methicillin-resistant Staphylococcus aureus (MRSA). With the lactam shown in FIG. 11A serving as a lead structure, a series of other C-4 substituted derivatives (FIGS. 11B-11I) were investigated herein. Table 5 lists microbiological data for β-lactams from Kirby-Bauer Disc Diffusion Test Results (with each lactam identified by Figure number).
(§7) Scheme I summarizes the synthesis of ester compounds 4. 4-Carboxy benzaldehyde (1) is coupled with the appropriate alcohol using DCC/DMAP, followed by reaction with p-anisidine, to give imines 2. Staudinger coupling of methoxyacetyl chloride with imine 2 gives N-aryl protected β-lactam 3. N-Dearylation of β-lactam 3 with ceric ammonium nitrate and methylthiolation with N-(methylthio)phthalimide affords N-methylthio β-lactams 4. These compounds are tested for antibacterial activity by the Kirby-Bauer method of disc diffusion on agar plates. [drawing 7]

[2] = tested on: MRSA USF654; test: Kirby-Bauer agar disk diffusion; set-up: Kirby-Bauer Disc Diffusion Test Results: unit not given here; settings: for Zones of Inhibition: Table 4; for Kirby-Bauer Disc Diffusion Test Results: Table 5, beta-lactamase producing strain
Procedure: as §1, §2, §3, §4, §5, §6, §7

[3] = tested on: MRSA USF652; test: Kirby-Bauer agar disk diffusion; set-up: Kirby-Bauer Disc Diffusion Test Results: unit not given here; settings: for Zones of Inhibition: Table 4; for Kirby-Bauer Disc Diffusion Test Results: Table 5, beta-lactamase producing strain
Procedure: as §1, §2, §3, §4, §5, §6, §7

[4] = tested on: MRSA USF658; test: Kirby-Bauer agar disk diffusion; set-up: Kirby-Bauer Disc Diffusion Test Results: unit not given here; settings: for Zones of Inhibition: Table 4; for Kirby-Bauer Disc Diffusion Test Results: Table 5, beta-lactamase producing strain
Procedure: as §1, §2, §3, §4, §5, §6, §7

[5] = tested on: MRSA USF657; test: Kirby-Bauer agar disk diffusion; set-up: Kirby-Bauer Disc Diffusion Test Results: unit not given here; settings: for Zones of Inhibition: Table 4; for Kirby-Bauer Disc Diffusion Test Results: Table 5, beta-lactamase producing strain
Procedure: as §1, §2, §3, §4, §5, §6, §7

[6] = tested on: MRSA USF659; test: Kirby-Bauer agar disk diffusion; set-up: Kirby-Bauer Disc Diffusion Test Results: unit not given here; settings: for Zones of Inhibition: Table 4; for Kirby-Bauer Disc Diffusion Test Results: Table 5, beta-lactamase producing strain
Procedure: as §1, §2, §3, §4, §5, §6, §7

[7] = tested on: MRSA USF656; test: Kirby-Bauer agar disk diffusion; set-up: Kirby-Bauer Disc Diffusion Test Results: unit not given here; settings: for Zones of Inhibition: Table 4; for Kirby-Bauer Disc Diffusion Test Results: Table 5, beta-lactamase producing strain
Procedure: as §1, §2, §3, §4, §5, §6, §7

[8] = tested on: MRSA USF655; test: Kirby-Bauer agar disk diffusion; set-up: Kirby-Bauer Disc Diffusion Test Results: unit not given here; settings: for Zones of Inhibition: Table 4; for Kirby-Bauer Disc Diffusion Test Results: Table 5
Procedure: as §1, §2, §3, §4, §5, §6, §7

[9] = tested on: Staph aureus 525; test: Kirby-Bauer agar disk diffusion; settings: for Zones of Inhibition: Table 4, 20 μg disk loading; for Kirby-Bauer Disc Diffusion Test Results: Table 5
[10] = tested on: Staphylococcus strains including MRSA; test: antibacterial activity screening, results stated in words
Description: However, the N-alkylthio substituent is required, since reduction to the N—H analogue completely destroys the biological activity. […]
as §3
With the lactam of FIG. 6A serving as a lead structure, other C4-unsaturated derivatives (FIGS. 6B-6E) and C4-saturated analogues (FIGS. 6F-6H), were examined all of which also have activity against Staphylococcus strains including MRSA.
as §7

For `COC1C(=O)N(SC)C1c1ccccc1Cl` (racemic) [Methyl-thio], the “Zones of Inhibition” value ([1]; 20 μg disk loading) was 29 mm, the “Zones of Inhibition” value ([2]; 20 μg disk loading) was 26 mm and the “Zones of Inhibition” value ([3]; 20 μg disk loading) was 30 mm. The “Zones of Inhibition” value ([4]; 20 μg disk loading) was 26 mm, the “Zones of Inhibition” value ([5]; 20 μg disk loading) was 27 mm and the “Zones of Inhibition” value ([6]; 20 μg disk loading) was 23 mm. The “Zones of Inhibition” value ([7]; 20 μg disk loading) was 28 mm, the “Zones of Inhibition” value ([8]; 20 μg disk loading) was 26 mm and the “Zones of Inhibition” value [9] was 26 mm.

For `COC1C(=O)N(SC)C1C#Cc1ccccc1` (racemic) [FIG. 11A], the “Kirby-Bauer Disc Diffusion Test Results” value [1] was 29, the “Kirby-Bauer Disc Diffusion Test Results” value [2] was 27 and the “Kirby-Bauer Disc Diffusion Test Results” value [3] was 29. The “Kirby-Bauer Disc Diffusion Test Results” value [4] was 27, the “Kirby-Bauer Disc Diffusion Test Results” value [5] was 28 and the “Kirby-Bauer Disc Diffusion Test Results” value [6] was 24. The “Kirby-Bauer Disc Diffusion Test Results” value [7] was 30, the “Kirby-Bauer Disc Diffusion Test Results” value [8] was 27 and the “Kirby-Bauer Disc Diffusion Test Results” value [9] was 27.

With `CCCCSN1C(=O)C(OC)C1c1ccccc1Cl` (racemic) [Butylthio] the “Zones of Inhibition” value ([1]; 20 μg disk loading) was 27 mm, the “Zones of Inhibition” value ([2]; 20 μg disk loading) was 23 mm and the “Zones of Inhibition” value ([3]; 20 μg disk loading) was 26 mm. The “Zones of Inhibition” value ([4]; 20 μg disk loading) was 20 mm, the “Zones of Inhibition” value ([5]; 20 μg disk loading) was 26 mm and the “Zones of Inhibition” value ([6]; 20 μg disk loading) was 24 mm. For the same compound, the “Zones of Inhibition” value ([7]; 20 μg disk loading) was 25 mm, the “Zones of Inhibition” value ([8]; 20 μg disk loading) was 23 mm and the “Zones of Inhibition” value [9] was 25 mm.

`COC1C(=O)N(SC)C1c1cccs1` (racemic) [FIG. 11E] was tested, and the “Kirby-Bauer Disc Diffusion Test Results” value [1] was 28, the “Kirby-Bauer Disc Diffusion Test Results” value [2] was 27 and the “Kirby-Bauer Disc Diffusion Test Results” value [3] was 28. For the same compound, the “Kirby-Bauer Disc Diffusion Test Results” value [4] was 26, the “Kirby-Bauer Disc Diffusion Test Results” value [5] was 26 and the “Kirby-Bauer Disc Diffusion Test Results” value [6] was 24. The “Kirby-Bauer Disc Diffusion Test Results” value [7] was 28, the “Kirby-Bauer Disc Diffusion Test Results” value [8] was 29 and the “Kirby-Bauer Disc Diffusion Test Results” value [9] was 27.

`COC1C(=O)N(SC)C1c1cccc([N+](=O)[O-])c1` (racemic) [FIG. 11C] was tested, and the “Kirby-Bauer Disc Diffusion Test Results” value [1] was 22, the “Kirby-Bauer Disc Diffusion Test Results” value [2] was 16 and the “Kirby-Bauer Disc Diffusion Test Results” value [3] was 17. The “Kirby-Bauer Disc Diffusion Test Results” value [4] was 17, the “Kirby-Bauer Disc Diffusion Test Results” value [5] was 18 and the “Kirby-Bauer Disc Diffusion Test Results” value [6] was 11. For the same compound, the “Kirby-Bauer Disc Diffusion Test Results” value [7] was 18, the “Kirby-Bauer Disc Diffusion Test Results” value [8] was 14 and the “Kirby-Bauer Disc Diffusion Test Results” value [9] was 15.

For `COC1C(=O)N(SC)C1c1ccc(Cl)cc1` (racemic) [FIG. 11H], the “Kirby-Bauer Disc Diffusion Test Results” value [1] was 28, the “Kirby-Bauer Disc Diffusion Test Results” value [2] was 23 and the “Kirby-Bauer Disc Diffusion Test Results” value [3] was 24. For the same compound, the “Kirby-Bauer Disc Diffusion Test Results” value [4] was 20, the “Kirby-Bauer Disc Diffusion Test Results” value [5] was 22 and the “Kirby-Bauer Disc Diffusion Test Results” value [6] was 18. For the same compound, the “Kirby-Bauer Disc Diffusion Test Results” value [7] was 22, the “Kirby-Bauer Disc Diffusion Test Results” value [8] was 23 and the “Kirby-Bauer Disc Diffusion Test Results” value [9] was 24.

In the case of `COC(=O)c1ccc(C2C(OC)C(=O)N2SC)cc1` (racemic) [4a], the “The Zone of Inhibition” value ([1]; Table 6, 20 μg disk loading) is reported as 14 mm, the “The Zone of Inhibition” value ([2]; Table 6, 20 μg disk loading) is reported as 8 mm and the “The Zone of Inhibition” value ([3]; Table 6, 20 μg disk loading) is reported as 12 mm. For the same compound, the “The Zone of Inhibition” value ([4]; Table 6, 20 μg disk loading) was 9 mm, the “The Zone of Inhibition” value ([5]; Table 6, 20 μg disk loading) was 12 mm and the “The Zone of Inhibition” value ([6]; Table 6, 20 μg disk loading) was 13 mm. For the same compound, the “The Zone of Inhibition” value ([7]; Table 6, 20 μg disk loading) was 11 mm, the “The Zone of Inhibition” value ([8]; Table 6, 20 μg disk loading) was 14 mm and the “antibacterial activity, in words” value ([10]; Example 6, MRSA strains of Table 6) was “about similar activity”.

`CCCCCCCOC(=O)c1ccc(C2C(OC)C(=O)N2SC)cc1` (racemic) [FIG. 8D] was tested, and the “antibacterial activity, in words” value ([10]; Example 3 SAR) was “about half the activity of the pentyl analogues”.

`COC(=O)c1ccc(C2C(OC)C(=O)N2SC)cc1` (racemic) [FIG. 7J] was tested, and the “antibacterial activity, in words” value ([10]; Example 3 SAR) was “showing antibacterial activity”.

`COC1C(=O)N(SC)C1C#Cc1ccccc1` (racemic) [FIG. 6A] was tested, and the “antibacterial activity, in words” value ([10]; Example 3 SAR) was “inhibits the in vitro growth”.

In the case of `COC1C(=O)N(SC2CCCCC2)C1c1ccccc1Cl` (racemic) [Cyclo-hexyl], the “Zones of Inhibition” value ([1]; 20 μg disk loading) is reported as 20 mm, the “Zones of Inhibition” value ([2]; 20 μg disk loading) is reported as 21 mm and the “Zones of Inhibition” value ([3]; 20 μg disk loading) is reported as 25 mm. For the same compound, the “Zones of Inhibition” value ([4]; 20 μg disk loading) was 26 mm, the “Zones of Inhibition” value ([5]; 20 μg disk loading) was 23 mm and the “Zones of Inhibition” value ([6]; 20 μg disk loading) was 22 mm. The “Zones of Inhibition” value ([7]; 20 μg disk loading) was 23 mm, the “Zones of Inhibition” value ([8]; 20 μg disk loading) was 22 mm and the “Zones of Inhibition” value [9] was 21 mm.
